The text below walks through data of patent publication US4162325A, “N-substituted lactams” (UCB, Societe Anonyme, priority 1976, dated 1979).

Broadly, the LD50 is the dose at which mortality reaches 50%. A high value points to a less toxic substance.

Where “and” joins values, the source holds several entries; their conditions need not be identical. Equal entries are not always repeated. Where two headings read alike, the source gives them in different places. Bounds are passed on as bounds.

The subject of data set [1] is rat. In words: reduction of the spinal fixation time in rats. Type of data set: in vivo. To be noted: intraperitoneal, spinal section after 35 minutes. The text has this: (B) The action on mnemic processes is also shown by the reduction of the spinal fixation time, a test which has been described in literature (see C. GIURGEA & F. MOURAVIEFF-LESUISSE, Arch. Int. Pharmacodyn. 191/2,(1971),279) as an elementary memory model and which provides pharmacological reactivity in good correlation with clinical physiopathology. In the rat, after unilateral section of the cerebellum, there is a postural asymmetry of the hind paws. This asymmetry may persist, even after spinal section, if the animal has passed a sufficient period of time in this position. This time, which is called the spinal fixation time, is 45 minutes under the experimental conditions applied here.
On the other hand, if spinal section is performed before the expiry of this period of time, for example 35 minutes after the onset of the asymmetry, the latter disappears.
No animal treated with placebos retains the asymmetry under these conditions.
Inversely, any product which allows the rats to retain the asymmetry (thus effecting spinal fixation) when the spinal section is performed after 35 minutes, is considered to be active.
Intraperitoneal administration of compound A gives rise to the effects described in Table II. By "number of animals" is to be understood the number of animals which responded positively to the test, in relation to the number of animals tested at the indicated dose: […]

A further data set relates to rats. In words: active avoidance test, memory retention (paw pressure withdrawal) in rats. To be noted: for minimal effective dose: Rattus norvegicus, sc, 24 h, read-out: Active dose (minimum dose which reduces the stimulus to below 11 graduations). Type of data set: in vivo, rat. The text has this: (A) The action on mnemic processes is first shown by the ability of the compounds to improve a type of memory retention in rats. The principle of the active avoidance test (see M. GREINDL and S. PREAT, Arch. Int. Pharmacodyn. Therap. 223,(1976),(1),168-171) developed in our laboratories and used for this purpose may be described as follows: the reaction of withdrawal of a rat's paw when subjected to an increasing and measured pressure is observed. The pressure at which the withdrawal reaction takes place is called the reaction threshold. This threshold is expressed by the number of graduations of the scale of the apparatus used (Analgesy meter UGO BASILE - Milano) and thus corresponds to the minimum pressure which brings about withdrawal when applied to the animal's paw. It is read directly from the scale of the apparatus used.
Inversely, animals treated with a substance having a positive effect on the mnemic processes (for example, piracetam) show a significant degree of retention: the stimulus at which the rats react by a reflex of avoidance is statistically lower than that of the control animals. A minimum of 20 rats are used per test (10 treated rats and 10 control rats) and the active dose is defined as the minimum dose which reduces the stimulus to below 11 graduations.
Subcutaneous administration of compounds of general formula (I), namely compounds A, G, H, I, J, K, L, N, O, P, Q, R, V, W, give, under these conditions, the effects indicated in Table I below.

In the next data set the test system is mice. In words: protection against aggressions of the hypoxic type (lethality induced by oxydipentonium chloride) in mice. Type of data set: in vivo. To be noted: 1 h, mouse, intraperitoneal, one hour before curarizer, read-out: Proportion of survivors, treated animals. The method, then: Protection against aggressions of the hypoxic type is shown by a reduction of the lethality induced by a curarizer, the duration of action of which is short, namely oxydipentonium chloride (Brevatonal). At the doses used, this curarizer brings about a respiratory depression which, in turn, brings about a hypoxi-hypercapnic syndrome. A compound capable of protecting the brain during this brief period of hypoxia ensures survival. The compounds are administered to groups of 10 mice one hour before the injection of the curarizer; in a parallel test, a control group of 10 mice are given physiological salt solution before the curarizer. This test has also been developed in our laboratories (see, for the principle of this test, S. LEVIS et al.; Arch. Int. Pharmacodyn. Therap, 93,(1953),1,46-54).
Intraperitoneal administration of compounds of general formula (I), namely, products A, B, F, G, H, I, J, K, L, gives the results shown in Table III: […]

The nature of another data set: toxicity, LD50 in rat. To be noted: in vivo, intravenous. The text has this: The tested compounds have a remarkably low toxicity. Table V gives the toxicities, after intravenous administration, of some of the compounds of the present invention: […]
The subject of data set [2] is rat. To be noted: 30 mg/kg (0.2 mM/kg), Giurgea et al., loc.cit.; cited from earlier work.

`NC(=O)CNC(=O)CN1CCCC1=O` [A, 2-(2-Oxo-1-pyrrolidineacetamido)-acetamide]: the entries for the “Number of animals which responded positively / number tested” value in the data set on rat [1] (6.4 mg/kg (0.032 mM/kg)) and with rat [1] (20.0 mg/kg (0.1 mM/kg)) were 3/7 and 4/5, respectively. The minimal effective dose in the data set with rats was 0.4 mg/kg and 2 µmol/kg. Also, the “activity compared with piracetam in the active avoidance test” value with rats (rat, subcutaneous) was “superior to that of piracetam”. In addition, the responders at 320 µM, 320 µmol/kg in the data set on mice (0.32 mM/kg (A 64, I 95, J 68, Piracetam 45 mg/kg), control 1/10, Piracetam 0/10) came to 70%. Also, the median lethal dose (LD50) in the data set “toxicity, LD50 in rat” is > 5000 µmol/kg and > 1000 mg/kg.

Regarding `NC(=O)CN1CCCC1=O` [Piracetam, 2-oxo-1-pyrrolidineacetamide, reference compound], the minimal effective dose with rats is 3.5 mg/kg and 25 µmol/kg. The responders at 320 µM, 45 mg/kg with mice (ip, 0.32 mM/kg (A 64, I 95, J 68, Piracetam 45 mg/kg), control 1/10, Piracetam 0/10) was 10%. Also, the responders at 1000 µM, 142 mg/kg in the data set with mice (ip, 1.0 mM/kg (Piracetam 142 mg/kg), control 2/10) was 40%. Also, the responders at 3200 µM, 454 mg/kg in the data set on mice (ip, 3.2 mM/kg (Piracetam 454 mg/kg), control 1/10) turned out to be 80%. In addition, the “Number of animals which responded positively / number tested” value in the data set on rat [2] is given as 4/9.
